# Values quoted from earlier work in patent publication US20260295054A1, “GLUCAGON-LIKE PEPTIDE-1 RECEPTOR AGONIST VARIANTS AND METHODS THEREOF” (Neuraly, Inc., priority 2023, published 2026).
# Like-named read-outs stand apart in the source and are kept apart here.
# Assays:
# [1] = humans
# [2] = system: type 2 diabetic subjects; conditions: for HbA1c reduction from baseline: week 16
substance,measurement,setting,value
albiglutide,serum half-life,[1],~ 5 days
same,HbA1c reduction from baseline,[2]; 30 mg weekly,0.87%
same,HbA1c reduction from baseline,[2]; 50 mg biweekly,0.79%
same,HbA1c reduction from baseline,[2]; 100 mg monthly,0.87%
same,albiglutide concentrations between monthly doses,[2]; monthly dosing,fall essentially to zero between monthly doses
same,fasting blood glucose control,[2]; monthly dosing,substantial loss in fasting blood glucose control
same,nausea and vomiting on dosing days,[2]; monthly vs weekly dosing,significantly greater incidence of nausea and vomiting
